This note sets out measurements from patent US20230287027A1, “ADJUVANT WITH TLR4 AGONIST ACTIVITY” (Sumitomo Pharma Co., Ltd, priority 2020, published 2023).

For assay [1], the target named is T1, mouse TLR4 (Mus musculus, UniProt Q9JHF9+Q9QUK6).
T1 construct: host or cells: HEK-Blue mTLR4 cell line
T1 sequence (Q9QUK6 26-835): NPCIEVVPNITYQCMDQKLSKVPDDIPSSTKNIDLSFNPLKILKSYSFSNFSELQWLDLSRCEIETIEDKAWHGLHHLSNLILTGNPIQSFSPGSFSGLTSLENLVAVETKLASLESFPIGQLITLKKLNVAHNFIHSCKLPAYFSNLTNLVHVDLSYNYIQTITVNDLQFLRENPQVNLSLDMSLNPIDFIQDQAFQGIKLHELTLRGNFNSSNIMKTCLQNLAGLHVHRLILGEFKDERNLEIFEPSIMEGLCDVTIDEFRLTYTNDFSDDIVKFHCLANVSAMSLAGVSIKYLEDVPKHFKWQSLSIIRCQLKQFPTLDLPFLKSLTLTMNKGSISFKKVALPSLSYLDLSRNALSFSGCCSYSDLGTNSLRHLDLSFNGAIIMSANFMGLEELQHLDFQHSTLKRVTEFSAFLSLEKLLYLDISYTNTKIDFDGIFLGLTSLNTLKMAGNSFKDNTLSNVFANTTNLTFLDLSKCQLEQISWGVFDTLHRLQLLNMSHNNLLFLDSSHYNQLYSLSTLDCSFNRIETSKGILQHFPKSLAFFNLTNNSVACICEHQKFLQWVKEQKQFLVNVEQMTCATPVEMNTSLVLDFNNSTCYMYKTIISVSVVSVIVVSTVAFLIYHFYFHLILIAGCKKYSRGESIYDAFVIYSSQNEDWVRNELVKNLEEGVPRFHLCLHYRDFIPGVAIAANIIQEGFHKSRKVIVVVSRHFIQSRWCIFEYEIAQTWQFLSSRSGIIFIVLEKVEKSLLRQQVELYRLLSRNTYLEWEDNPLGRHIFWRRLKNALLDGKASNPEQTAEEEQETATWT
T1 sequence (Q9JHF9 19-160): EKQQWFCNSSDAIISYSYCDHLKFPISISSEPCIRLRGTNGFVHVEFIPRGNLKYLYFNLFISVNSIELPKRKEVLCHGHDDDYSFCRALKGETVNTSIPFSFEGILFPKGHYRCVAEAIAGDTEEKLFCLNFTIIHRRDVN
As to the kind of experiment: Mouse TLR4 reporter gene assay (Test 2). The assay is classed as cell-based. The settings on record: HEK-Blue mTLR4 cell line, SEAP reporter, 37° C. 16-20 hours, 0.1% DMSO; concentration giving half of maximal SEAP level induced with LPS. An excerpt: Mouse TLR4 Reporter Gene Assay
HEK-Blue™ mTLR4 cell line (Invivogen) is a stably co-transfected cell line which expresses mouse TLR4, MD2, CD14 and secretory SEAP reporter gene under the transcriptional regulation of an NF-κB response element. The TLR4 expression of the cell line has been already tested by RT-PCR, flow cytometry. Transfectants with stable expression were selected using the antibiotic HEK-Blue™ Selection. TLR signaling leads to the translocation of NF-κB and the activation of the promoter results in expression of the SEAP gene. TLR4-specific activation was assessed by determining the level of SEAP produced following incubation of the cells at 37° C. for 16-20 hours with each compound prepared in Examples and Reference examples in the presence of 0.1% (v/v) DMSO. The mouse TLR4 activity for the present compound was assessed by mouse TLR4 reporter gene assay, and the concentration of the compound concentration which produced half of the maximal level of SEAP induced with LPS was determined as EC50.
For orientation: A reporter such as luciferase makes a cellular process visible.

In assay [2] the target is T2, human TLR4 (Homo sapiens, UniProt O00206+Q9Y6Y9).
T2 construct: host or cells: HEK-Blue hTLR4 cell line
Description: Human TLR4 reporter gene assay (Test 1). Format: cell-based. The settings on record: HEK-Blue hTLR4 cell line, SEAP reporter, 37° C. 16-20 hours, 0.1% DMSO; concentration giving half of maximal SEAP level induced with LPS. An excerpt:
Human TLR4 Reporter Gene Assay
HEK-Blue™ hTLR4 cell line (Invivogen Corporation) is a stably co-transfected cell line which expresses human TLR4, MD2, CD14, and secretory alkaline phosphatase (SEAP) reporter gene under the transcriptional regulation of an NF-κB response element. The TLR4 expression of the cell line has been already tested by RT-PCR, flow cytometry. Transfectants with stable expression were selected using the antibiotic HEK-Blue™ Selection. TLR signaling leads to the translocation of NF-κB and the activation of the promoter results in expression of the SEAP gene. TLR4-specific activation was assessed by determining the level of SEAP produced following incubation of the cells at 37° C. for 16-20 hours with each compound prepared in Examples and Reference examples in the presence of 0.1% (v/v) DMSO. The human TLR4 activity for the present compound was assessed by human TLR4 reporter gene assay, and the concentration of the compound concentration which produced half of the maximal level of SEAP induced with lipopolysaccharide (LPS) was determined as EC50.

T2 sequence (O00206 24-839): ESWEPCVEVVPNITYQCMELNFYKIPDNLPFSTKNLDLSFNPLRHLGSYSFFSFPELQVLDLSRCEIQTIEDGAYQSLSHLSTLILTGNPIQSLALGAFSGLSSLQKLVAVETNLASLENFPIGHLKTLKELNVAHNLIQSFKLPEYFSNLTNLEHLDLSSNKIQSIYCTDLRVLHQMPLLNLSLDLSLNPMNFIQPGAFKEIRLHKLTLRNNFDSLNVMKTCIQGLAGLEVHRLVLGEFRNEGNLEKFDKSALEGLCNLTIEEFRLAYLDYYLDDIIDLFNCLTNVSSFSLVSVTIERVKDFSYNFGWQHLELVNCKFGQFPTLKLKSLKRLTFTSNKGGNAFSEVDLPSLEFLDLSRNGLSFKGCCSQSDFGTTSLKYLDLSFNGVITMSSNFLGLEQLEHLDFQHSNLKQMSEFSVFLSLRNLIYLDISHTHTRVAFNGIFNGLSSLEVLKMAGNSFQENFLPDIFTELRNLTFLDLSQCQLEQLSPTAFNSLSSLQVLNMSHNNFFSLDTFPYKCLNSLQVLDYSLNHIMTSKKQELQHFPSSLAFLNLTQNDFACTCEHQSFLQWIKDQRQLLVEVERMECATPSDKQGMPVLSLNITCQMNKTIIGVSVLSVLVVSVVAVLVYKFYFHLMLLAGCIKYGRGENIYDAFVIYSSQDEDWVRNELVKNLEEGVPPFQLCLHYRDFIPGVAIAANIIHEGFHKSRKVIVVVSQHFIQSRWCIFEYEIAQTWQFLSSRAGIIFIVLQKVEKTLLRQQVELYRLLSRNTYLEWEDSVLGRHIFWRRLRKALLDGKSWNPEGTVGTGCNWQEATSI
T2 sequence (Q9Y6Y9 17-160 limits assumed): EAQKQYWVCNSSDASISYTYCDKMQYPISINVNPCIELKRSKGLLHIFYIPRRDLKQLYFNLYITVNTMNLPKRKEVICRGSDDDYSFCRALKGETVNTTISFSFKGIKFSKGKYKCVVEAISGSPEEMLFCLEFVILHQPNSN

For `CCCCCCCCCCC[C@H](CC(=O)NC(COC1OC(CO)C(OP(=O)(O)O)C(OC(=O)C[C@@H](CCCCCCCCCCC)OC(=O)CCCCCCCCC)C1NC(=O)C[C@@H](CCCCCCCCCCC)OC(=O)CCCCCCCCC)C(=O)O)OC(=O)CCCCCCCCc1ccccc1` (stereo partly shown) [compound 14], the EC50 in assay [1] and in assay [2] was 14.2 nM each time.

With `CCCCCCCCCCC[C@H](CC(=O)NC(COC1OC(CO)C(O)C(OC(=O)C[C@@H](CCCCCCCCCCC)OC(=O)CCCCCCCCC)C1NC(=O)C[C@@H](CCCCCCCCCCC)OC(=O)CCCCCCCCC)C(=O)O)OC(=O)CCCCCCCCc1ccccc1` (stereo partly drawn) [Example 5, (2S)-2-({[(3R)-3-(9-phenylnonanoyl)oxy]tetradecanoyl}amino)-3-{[3-{[(3R)-3-(decanoyloxy)tetradecanoyl]amino}-5-hydroxy-6-(hydroxymethyl)-4-({(3R)-3-(decanoyloxy)tetradecanoyl}oxy)oxan-2-yl]oxy}propanoic acid], the half-maximal effective concentration (EC50) in assay [1] was 49.7 nM; in assay [2], 101 nM.

With `CCCCCCCCCCC[C@H](CC(=O)NC(COC1OC(CO)C(OP(=O)(O)O)C(OC(=O)C[C@@H](CCCCCCCCCCC)OC(=O)CCCCCCCCC)C1NC(=O)C[C@@H](CCCCCCCCCCC)OC(=O)CCCCCCCCc1ccccc1)C(=O)O)OC(=O)CCCCCCCCC` (single isomer, unassigned) [compound 11], the EC50 was 50.3 nM in assay [1] and 457 nM in assay [2].

For the compound “(2R)-2-({[(3R)-3-(9-phenylnonanoyl)oxy]tetradecanoyl}amino)-3-{[3-{[(3R)-3-(decanoyloxy)tetradecanoyl]amino}-5-hydroxy-6-(hydroxymethyl)-4-({(3R)-3-(decanoyloxy)tetradecanoyl}oxy)oxan-2-yl]oxy}propanoic acid [Example 4]”, in assay [1], the “mouse TLR4 EC50” value worked out at 0.057 µg/mL. Further, the “human TLR4 EC50” value in assay [2] worked out at 0.077 µg/mL.

On to `CCCCCCCCCCC[C@H](CC(=O)NC(COC1OC(CO)C(OP(=O)(O)O)C(OC(=O)C[C@@H](CCCCCCCCCCC)OC(=O)CCCCCCCCC)C1NC(=O)C[C@@H](CCCCCCCCCCC)OC(=O)CCCCCCCCc1ccccc1)C(=O)O)OC(=O)CCCCCCCCC` (single isomer, unassigned) [compound 12], for which the 50% effective concentration (EC50) in assay [1] and in assay [2] was greater than 645 nM each time.

As to `CCCCCCCCCCC[C@H](CC(=O)NC(COC1OC(CO)C(OP(=O)(O)O)C(OC(=O)C[C@@H](CCCCCCCCCCC)OC(=O)CCCCCCCCC)C1NC(=O)C[C@@H](CCCCCCCCCCC)OC(=O)CCCCCCCCC)C(=O)O)OC(=O)CCCCCCCCc1ccccc1` (stereo partly shown) [compound 13], the figures for the EC50 in assay [1] and in assay [2] were 13.5 nM and 34.2 nM, respectively.

Consider `CCCCCCCCCCC[C@H](CC(=O)NC1C(OC[C@@H](NC(=O)C[C@@H](CCCCCCCCCCC)OC(=O)CCCCCCCCC)C(=O)O)OC(CO)C(O)C1OC(=O)C[C@@H](CCCCCCCCCCC)OC(=O)CCCCCCCCC)OC(=O)CCCCCCCCc1ccccc1` (stereo partly drawn) [Example 3, (2R)-2-{[(3R)-3-(decanoyloxy)tetradecanoyl]amino}-3-{[4-{[(3R)-3-(decanoyloxy)tetradecanoyl]oxy}-5-hydroxy-6-(hydroxymethyl)-3-({(3R)-3-[(9-phenylnonanoyl)oxy]tetradecanoyl}amino)oxan-2-yl]oxy}propanoic acid], for which the EC50 in assay [1] was 137 nM; in assay [2] it was 161 nM.

For `CCCCCCCCCCC[C@H](CC(=O)NC(COC1OC(CO)C(OP(=O)(O)O)C(OC(=O)C[C@@H](CCCCCCCCCCC)OC(=O)CCCCCCCCc2ccccc2)C1NC(=O)C[C@@H](CCCCCCCCCCC)OC(=O)CCCCCCCCC)C(=O)O)OC(=O)CCCCCCCCC` (stereo partly shown) [Reference example 10], the EC50 in assay [1] and in assay [2] was 12.9 nM in each case.

The EC50 is the concentration that produces a half-maximal response. The low end stands for greater potency, the high end for weaker potency.
